Data on 4 substances can be found in PMC5469750, “Antibacterial and detoxifying activity of NZ17074 analogues with multi-layers of selective antimicrobial actions against Escherichia coli and Salmonella enteritidis” (Scientific Reports, 2017).

Read-outs that look alike come from different tables or passages of the source. Bridges are numbered along the chain shown (N, C = ends). Where no end group is shown, it is not given here. Some results are limits rather than exact numbers.

One data set concerns S. enteritidis CVCC3377. The format is cell-based, Salmonella enteritidis. How it is done: (§1) The antimicrobial activity of peptides was determined by the microbroth dilution method. The bacterial strains were incubated in Mueller-Hinton (MH) medium at 37 °C overnight until the mid-log phase (OD600 nm reading of 0.5). Bacteria were diluted to 1 × 10^5 CFU/ml and added into 96-well plates, followed by the addition of serial dilutions of peptides (from 0.0625 to 128 μg/ml). The plates were incubated at 37 °C for 18–24 h. The MIC value was determined as the lowest peptide concentration at which no bacterial growth was observed. All tests were conducted in triplicate.

Data set [1] concerns Salmonella typhimurium ATCC14028. The format is cell-based. Here is the method:
as §1

Another data set concerns S. suis CVCC606. It is filed as cell-based. How it is done:
as §1

Data set [2] relates to Bacillus subtilis ATCC6633. The format is cell-based. How it is done:
as §1

The next data set deals with S. choleraesuis CVCC503. It is filed as cell-based. How it is done: as §1
The subject of a further data set is S. pullorum CVCC1802. The format is cell-based. How it is done:
as §1

The test system of data set [3] is Enterococcus faecium CMCC1.2136. It is filed as cell-based. How it is done: as §1
Another data set relates to S. pullorum CVCC1789. The format is cell-based. Here is the method: as §1
Data set [4] has as its system Staphylococcus aureus ATCC43300. The format is cell-based. Here is the method:
as §1

Data set [5] deals with Pseudomonas aeruginosa CICC10419. The format is cell-based. Here is the method: as §1
The next data set concerns Escherichia coli CVCC195. The format is cell-based. How it is done: as §1
The test system of another data set is P. aeruginosa CICC21630. The format is cell-based, Pseudomonas aeruginosa. Here is the method: as §1
Data set [6] relates to E. coli CICC21530 (serotype O157:H7). The format is cell-based, Escherichia coli. The following applies: microbroth dilution, MH medium, 1 × 10^5 CFU/ml, 37 °C, 18–24 h; representative of three independent experiments. Here is the method: as §1
(In general: In broth dilution the organism is exposed to a series of concentrations in liquid medium.)

For data set [7], the system named is E. coli CVCC1515. It is filed as cell-based, Escherichia coli. How it is done:
as §1

The subject of another data set is S. aureus ATCC25923. It is filed as cell-based, Staphylococcus aureus. Here is the method:
as §1

In data set [8] the test system is Listeria ivanovii ATCC19119. The format is cell-based. How it is done:
as §1

Data set [9] is described as follows: Calcein leakage from model eukaryotic membranes. The format is biochemical. As to conditions: POPC/cholesterol = 1:1 LUVs (500 μM lipid), 64 to 256 μg/ml, 5 min; 100% = 1% Triton X-100; n = 3. How it is done: Different lipids (Avanti Polar Linpids, Inc.) were used to prepare model membranes composed of POPC/ POPG (4:1 molar ratio) and POPC/cholesterol (1:1) by the extrusion method as previously described. POPC/POPG and POPC/cholesterol LUVs were used to mimic gram-negative bacterial and eukaryotic membranes, respectively. […] After incubation for 5 min, the fluorescence (F) (λexcitation = 492 nm, λemission = 518 nm) was measured on a microplate reader.

The subject of data set [10] is Candida albicans CGMCC2.2411. The format is cell-based.
The subject of the next data set is murine erythrocytes. More on the design: method as in PMID 24816779. As to conditions: 128 μg/ml; parent peptide; cited from earlier work.
A short description of data set [11]: LPS binding, BODIPY-TR-cadaverine (BC) displacement. As to conditions: 100 μM; 40 μg/ml LPS and 10 μM BC in 50 mM Tris buffer pH 7.4, 1 h, room temperature. How it is done:
Equal volumes of 40 μg/ml LPS and 10 μM BC in 50 mM Tris buffer (pH 7.4) were mixed, added into 96-well plates and incubated in the dark for 4 h at room temperature. […] Fluorescence was then measured using a microplate reader (excitation/emission, 580/620 nm). The occupancy rate was calculated by the following equation: BC displacement rate (%) = (1 − (F0 − F)/(F0 − Fmax)) × 100, wherein F0 is the fluorescence intensity of the solution of BC alone; Fmax is the fluorescence intensity in the presence of LPS at the saturation concentration, and F is the intensity of LPS:BC mixtures at varying displacer concentrations.

The next data set deals with S. enteritidis CICC22956. Put plainly: S. enteritidis-induced peritonitis model, survival. As to conditions: 7 days, six mice per group. It is filed as in vivo, ICR mice. How it is done:
(§2) Mice injected with only bacteria or saline served as negative (untreated) or blank (unchallenged) controls, respectively. Survival of mice was recorded every 12 h and followed for 7 days.

Data set [12] concerns E. coli CVCC1515. Put plainly: E. coli-induced peritonitis model, survival. It is filed as in vivo, ICR mice. The following applies: 7 days, six mice per group. How it is done:
as §2

The next data set has as its system IL-6. The experiment in a line: LPS-induced cytokine release, serum ELISA. It is filed as in vivo, C57BL/6 mice. The following applies: 15 mg/kg intraperitoneal 0.5 h after 10 mg/kg LPS; LPS control 1026.8; mean, n = 3 per group. How it is done:
(§3) Blood was collected in a heparin sodium tube at 2 h or 8 h after LPS injection and incubated for 30 min at 37 °C and then overnight at 4 °C. After centrifugation at 3,000 rpm for 10 min at 4 °C, serum was collected from supernatant. The cytokine levels of TNF-α, IL-6 and IL-1β were detected by the Jiaxuan Biotech. Co. Ltd. (Beijing, China) using an enzyme linked immunosorbent assay (ELISA).
Background: In an ELISA, binding on a coated surface is turned into a signal by an enzyme label.

In the next data set the test system is IL-1β. The experiment in a line: LPS-induced cytokine release, serum ELISA. It is filed as in vivo, C57BL/6 mice. The following applies: 15 mg/kg intraperitoneal 0.5 h after 10 mg/kg LPS; LPS control 292.9; mean, n = 3 per group. How it is done: as §3
Another data set concerns TNF-α. Put plainly: LPS-induced cytokine release, serum ELISA. The following applies: 15 mg/kg intraperitoneal 0.5 h after 10 mg/kg LPS; LPS control 394.9; mean, n = 3 per group. The format is in vivo, C57BL/6 mice. How it is done: as §3
In a further data set the test system is E. coli 0111:B4 LPS. The experiment in a line: LPS-induced endotoxemia model, survival. The format is in vivo, C57BL/6 mice. The following applies: 7 days, six mice per group. How it is done:
Eight-week-old SPF male C57BL/6 mice (20 g ± 5 g, six mice per group) were injected intraperitoneally with E. coli 0111:B4 LPS (30 mg/kg body weight, Sigma). […] Mice injected with PBS were used as the negative control. The mouse survival rate was recorded for 7 days.

The mark [13] stands for this setting: microbroth dilution, MH medium, 1 × 10^5 CFU/ml, 37 °C, 18–24 h, representative of three independent experiments.

On to GFAWNVAVYRNGVRVAHRRAN [N8], for which the MIC in the data set on S. enteritidis CVCC3377 (CVCC3377) was 1 µg/mL; in data set [1] (ATCC14028), over 64 µg/mL; in the data set with S. suis CVCC606 it was over 128 µg/mL; in [2] (ATCC6633), 4 µg/mL; in the data set on S. choleraesuis CVCC503 (CVCC503) it was over 64 µg/mL; against S. pullorum CVCC1802 (CVCC1802) it was 32 µg/mL. Moreover, the minimal inhibitory concentration (MIC) in [3] (CMCC1.2136) was 16 µg/mL; with S. pullorum CVCC1789 (CVCC1789) it was over 128 µg/mL; in data set [4] (ATCC43300), over 64 µg/mL; in data set [5] (CICC10419) it was over 128 µg/mL; against Escherichia coli CVCC195 (CVCC195) it was 32 µg/mL; with P. aeruginosa CICC21630 (CICC21630) it was over 128 µg/mL. For the same substance, the results for the MIC (in [6]; against E. coli CVCC1515 [7] (CVCC1515); against S. aureus ATCC25923 (ATCC25923)) were 16 µg/mL, 16 µg/mL and 2 µg/mL, respectively.

On to “GFCWNVCVYRNGVRVCHRRCN (bicyclic or more) (disulfide 7-16, 3-20) [N1, parent marine peptide, variant of arenicin-3 (Tyr5 → Asn, Tyr17 → His) from the lugworm Arenicola marina, reference compound]”, for which the MIC in the data set with S. enteritidis CVCC3377 (setting [13]) is 0.25 µg/mL; in data set [1] (setting [13]) it was 0.5 µg/mL; with S. suis CVCC606 (setting [13]), 16 µg/mL; in data set [2] (setting [13]), 0.25 µg/mL; against S. choleraesuis CVCC503 (setting [13]) it was 0.5 µg/mL; against S. pullorum CVCC1802 (setting [13]), 0.25 µg/mL. Besides, the MIC is over 16 µg/mL in data set [3] (setting [13]); 128 µg/mL in data set [8] (setting [13]); 0.25 µg/mL against S. pullorum CVCC1789 (setting [13]); 16 µg/mL in data set [4] (setting [13]); 2 µg/mL in data set [5] (setting [13]); 0.5 to 1 µg/mL with Escherichia coli CVCC195 (setting [13]). In addition, the MIC is 16 µg/mL in data set [10] (setting [13]); 4 µg/mL with P. aeruginosa CICC21630 (setting [13]); 0.5 µg/mL in data set [6]; 0.25 µg/mL in the data set on E. coli CVCC1515 [7] (setting [13]); 0.5 to 1 µg/mL with S. aureus ATCC25923 (setting [13]). Further, the calcein dye leakage in [9] is 2.5–25.3%. In addition, the hemolysis in the data set with murine erythrocytes is listed as 3%. Moreover, the BC displacement percentage in [11] came to 79.8%.

As to GFWNVVYRNGVRVHRRN [N5], the MIC with S. enteritidis CVCC3377 (CVCC3377) is 4 µg/mL; in data set [1] (ATCC14028) it was 128 µg/mL; in the data set on S. suis CVCC606, over 128 µg/mL; in [2] (ATCC6633), 64 µg/mL; in the data set on S. choleraesuis CVCC503 (CVCC503), over 128 µg/mL; in the data set with S. pullorum CVCC1802 (CVCC1802), over 128 µg/mL. Further, the MIC is 64 µg/mL in data set [3] (CMCC1.2136); 128 µg/mL in data set [8] (ATCC19119); over 128 µg/mL against S. pullorum CVCC1789 (CVCC1789); over 128 µg/mL in data set [4] (ATCC43300); over 128 µg/mL in data set [5] (CICC10419); 64 µg/mL in the data set on Escherichia coli CVCC195 (CVCC195). The MIC in data set [10] (CGMCC2.2411) was over 128 µg/mL; against P. aeruginosa CICC21630 (CICC21630), over 128 µg/mL; in data set [6], 64 µg/mL; against E. coli CVCC1515 [7] (CVCC1515), 128 µg/mL; in the data set with S. aureus ATCC25923 (ATCC25923), 2 µg/mL.

Turning to polymyxin B [PMB], the survival rate with S. enteritidis CICC22956 (0.31 mg/kg intraperitoneal at 0.5 h and 8 h after challenge) is 83.3%; with S. enteritidis CICC22956 (0.625 mg/kg intraperitoneal at 0.5 h and 8 h after challenge), 100%; in the data set on E. coli CVCC1515 [12] (0.31 mg/kg intraperitoneal at 0.5 and 8 h after inoculation), 66.7%; in the data set with E. coli CVCC1515 [12] (0.625 mg/kg intraperitoneal at 0.5 and 8 h after inoculation) it was 100%; in the data set on E. coli 0111:B4 LPS (10 mg/kg intraperitoneal at 0.5 h and 8 h after LPS (30 mg/kg)) it was 16.7%; in the data set on E. coli 0111:B4 LPS (15 mg/kg intraperitoneal at 0.5 h and 8 h after LPS (30 mg/kg)), 100%. Also, the calcein dye leakage in data set [9] is recorded as 12.3–51.0%. For the same substance, the “serum level of IL-6” value in the data set on IL-6 is 514.9 pg/mL. For the same substance, the “serum level of IL-1β” value in the data set on IL-1β was 242.8 pg/mL. The “serum level of TNF-α” value in the data set on TNF-α was 74.0 pg/mL. The BC displacement percentage in [11] worked out at 89.3%.

As a reminder, the MIC is the least concentration at which growth counts as inhibited. Higher therefore signals weaker potency.
